{"source": "patent US20260256863A1", "about": "“COMPOSITION, COMPRISING CINNAMOMUM CASSIA EXTRACT HAVING INNOVATIVE CKD EXTRACTION TECHNOLOGY (ICET) TECHNOLOGY APPLIED THERETO, FOR PREVENTING, ALLEVIATING, OR TREATING GASTRITIS OR PEPTIC ULCER” (CHONG KUN DANG PHARMACEUTICAL CORP., priority 2022, published 2026)", "test_system": "acute or chronic gastritis patients with one or more erosions", "assay": "Clinical trial in acute or chronic gastritis patients (gastroscopy, Example 3)", "assay_type": "in vivo, human", "conditions": "300 mg, 2 weeks, N=42", "protocol": "The Cinnamomum cassia extract of the Preparation Example 1 according to the present disclosure, placebo, and active control drug were administered to acute and chronic gastritis patients to compare and evaluate the effectiveness and safety of Cinnamomum cassia extract according to the present disclosure in a searching manner and to determine an appropriate dose. Specifically, acute or chronic gastritis patients with one or more erosions identified in a gastroscopy performed within 7 days from the start date of administration of investigational medical product were divided into the following test groups and administered for 2 weeks. • Test group I (group administered with 225 mg of Cinnamomum cassia extract according to the present disclosure) • Test group II (group administered with 450 mg of Cinnamomum cassia extract according to the present disclosure) • Control group I (group administered with placebo) • Control group II (group administered with 180 mg of ethanol soft ext. (20->1) of 95% artemisia) • Control group III (group administered with 300 mg rebamipide) • (1) Effective rate on gastroscopy: The proportion of test subjects whose erosion score on gastroscopy reduced by more than 50% after 2 weeks of administration (visit 3) compared to baseline (visit 1) was calculated according to the following Equation 1, and evaluated according to the criteria in Table 3. [table] • (1) Complete cure rate on gastroscopy: The proportion of test subjects who were completely cured to normal on gastroscopy (0 erosions: erosion score 1 point) after 2 weeks of administration (visit 3) compared to baseline (visit 1) was calculated and evaluated according to the following Equation 2."}
{"smiles": "O=C(NC(Cc1cc(=O)[nH]c2ccccc12)C(=O)O)c1ccc(Cl)cc1", "note": "(stereo not shown) [rebamipide]", "values": [{"measurement": "Complete cure rate on gastroscopy", "result": 40.48, "unit": "%"}, {"measurement": "Effective example people (complete cure rate on gastroscopy)", "result": 17, "unit": "people"}, {"measurement": "Effective example people (effective rate on gastroscopy)", "result": 20, "unit": "people"}, {"measurement": "Effective rate on gastroscopy", "result": 47.62, "unit": "%"}]}
